# According to patent US4621077A, “Pharmacologically active biphosphonates, process for the preparation thereof and pharmaceutical compositions therefrom” (Istituto Gentili S.p.A., priority 1982, dated 1986):
# Entries after “also recorded” stand apart in the source; their conditions may differ. Where two headings read alike, the source gives them in different places.
# Key:
# [1] = tested on: bone reabsorption (metaphyseal bone density); assay: Metaphyseal bone density / inhibition of bone reabsorption in rats treated for 7 days; format: in vivo; conditions: 7 days, rats
# [2] = 37° C., two days, control 29, prior to incubation 114.7
# Procedure: A model system is used to evaluate the ability of the phosphonates to inhibit the formation of crystals in inorganic solutions. Three solutions are prepared according to Fleisch.
# The pH is brought to 7.4 by means of potassium hydroxide. The concentration of Ca^++ was 6.7 mg%, a level similar to the calcium in blood which has been subjected to untrafiltration and the concentration of the inorganic phosphate Pi give a product Ca^++ ×Pi=80. The solution was analyzed for Ca^++ and Pi and was distributed in Erlenmeyer flasks 12 cc each. The flasks were divided in groups as follows:
# and then they are incubated under stirring at 37° C. for two days.
# At the end of incubation, the solutions are passed through "millipore filters" for the purpose of retaining the ctystals which are formed during the incubation; the filtrate then is analyzed for Ca^++ and Pi. The results are also reported in Table 2 as the product of Ca^++ x Pi in the solution at the end of the experiment.
# in vivo = conditions: mouse, Swiss mice, read-out: DL50 (the source's name)
# Procedure: For this study Swiss mice, both male and female, have been utilized: during the experiment, the animals are fed according to the method with Altromin in the form of tablets. For the oral and intraperitoneal administration, there are used 5% gum arabic solutions while saline solutions of pH 4 are used for the intravenous injections.
# The preliminary values of DL50 are calculated according to a graphic method.
# [3] = tested on: skull cells (lactate production); assay: cells; format: cell-based, Wistar rats; conditions: for activity at 2.5 µM / activity at 25 µM / activity at 250 µM: Rattus norvegicus, 16 h, read-out: Effect on the production of lactate ± S.E.M.
# Procedure: (§1) Cellular culture: the cells are cultured according to the method described by Fast et al, (Biochem. J. 172, 97-107 (1978)). By way of summary, the skulls removed from Wistar rats, one day old, are digested with collagenase. The cells set free are placed on a plate with concentration of 200,000 cells per cc of medium in disks "clusters" suitable for culture, the plates having 24 wells of 1.6 cm in diameter containing 0.5 cc of medium. The cells are cultivated in the essential minimum medium containing 10% of foetal calf serum in an atmosphere of 5% CO2 at 37° up to the eighth day. The bisphosphonates are added on the first day up to the end of the experiment. The medium is changed on the first, fourth and seventh day.
# On the seventh day, the medium is changed and the cells are incubated for 16 hours. The lactate produced during this period is measured in an extract in HClO4 of the medium using lactatodehydrogenase.
# skull cells = assay: cells; format: cell-based, Wistar rats; conditions: for activity at 2.5 µM / activity at 25 µM / activity at 250 µM: Rattus norvegicus, read-out: Effect on the cellular number ± S.E.M.
# Procedure: as §1
# The cells are counted with a Coulter counter after they have been set free from the disks by digestion with a mixture of collagenase and trypsin.
# injection sites / skin = assay: Necrosis at the injection sites in rats (local skin toxicity)
# Description: The symbol "x" represents a conventional score, that is "x" meand slight necrosis, "xx" means severe necrosis, "xxx" means very severe necrosis.
# [4] = tested on: bone reabsorption and mineralization (tibia, trabecular metaphysis); format: in vivo, Wistar rats
# Procedure: Groups of five Wistar rats of weight 180-200 grams are treated for a period of seven days with 0.1, 1.0 and 10 mg of P/kg of the following biphosphonic acids:
# The animals kept as a control were administered the solvent with NaCl. All the treatments were carried out by the subcutaneous route. […] The animals were fed with Altromine 1314 containing 1.1 g/100 g P and 250 IU/100 g of vitamin D3. On the eighth day, the animals were killed and the tibia was removed and fixed in 50% ethanol. The tibiae were then dehydrated in increasing concentration of ethanol and allowed to soak in methylmethacrylate after the addition of Plastoid N. Frontal sections were removed and cut to a thickness of 70-80 μm and then the sections were submitted to microradiography. This procedure permitted to evaluate the density of the mineral in the trabecular metaphysis according to the method of Shenk et al., Calc. Tiss. Res. 11, 196-214, 1973).
# One animal per group has been evaluated.
# [5] = 0.1 mg P/kg s.c., s.c. NaCl controls 29.72
# [6] = 1.0 mg P/kg s.c., s.c. NaCl controls 29.72
# [7] = 2.0 mg P/kg p.o., p.o. NaCl controls 28.45
smiles,measurement,setting,value
"O=P(O)(O)C(Cl)(Cl)P(=O)(O)O [Cl2 MBP, dichloromethanebiphosphonic acid]",metaphysical density,[1]; [5],38.21 % volume of calcified tissue
same,metaphysical density,[1]; [6],47.00 % volume of calcified tissue
same,metaphysical density,[1]; [7],31.20 % volume of calcified tissue
same,metaphysical density,"[1]; 10.0 mg P/kg s.c., s.c. NaCl controls 29.72",52.65 % volume of calcified tissue
same,product Ca++ × Pi in solution after incubation,[2]; 0.5 μM,44.0
same,product Ca++ × Pi in solution after incubation,[2]; 2.5 μM,60.4
same,product Ca++ × Pi in solution after incubation,[2]; 5.0 μM,73.6
same,LD50,in vivo; ip,750 mg/kg
same,LD50,in vivo; iv,130 mg/kg
same,LD50,"in vivo; po, os",> 2000 mg/kg
same,"effect on the production of lactate, in words",[3],diminishes it
same,activity at 2.5 µM,[3],87.5 ± 4%
same,activity at 25 µM,[3],67.1 ± 2.8%
same,activity at 250 µM,[3],16.9 ± 2.2%
same,"effect on the number of cells, in words",skull cells,causes a decrease in the number of cells
same,activity at 2.5 µM,skull cells,103 ± 0.7%
same,activity at 25 µM,skull cells,86.4 ± 2.1%
same,activity at 250 µM,skull cells,54.5 ± 1.9%
"NCCCCCC(O)(P(=O)(O)O)P(=O)(O)O [AHEX BP, 6-amino-1-hydroxyhexane-1,1-biphosphonic acid]",metaphysical density,"[1]; 0.01 mg P/kg s.c., s.c. NaCl controls 29.72",38.12 % volume of calcified tissue
same,metaphysical density,[1]; [5],46.96 % volume of calcified tissue
same,metaphysical density,[1]; [6],54.93 % volume of calcified tissue
same,metaphysical density,[1]; [7],34.69 % volume of calcified tissue
same,product Ca++ × Pi in solution after incubation,[2]; 0.05 μM,30.0
same,product Ca++ × Pi in solution after incubation,[2]; 0.25 μM,37.5
same,product Ca++ × Pi in solution after incubation,[2]; 0.5 μM,59.6
same,product Ca++ × Pi in solution after incubation,[2]; 2.5 μM,92.6
same,product Ca++ × Pi in solution after incubation,[2]; 5.0 μM,95.3
same,necrosis at the injection sites,"injection sites / skin; 0.01 mg P/kg, 1 day",.0.
same,necrosis at the injection sites,"injection sites / skin; 0.01 mg P/kg, 2 day",.0.
same,necrosis at the injection sites,"injection sites / skin; 0.01 mg P/kg, 3 day",.0.
same,necrosis at the injection sites,"injection sites / skin; 0.01 mg P/kg, 4 day",.0.
same,necrosis at the injection sites,"injection sites / skin; 0.01 mg P/kg, 5 day",.0.
same,necrosis at the injection sites,"injection sites / skin; 0.01 mg P/kg, 6 day",.0.
same,necrosis at the injection sites,"injection sites / skin; 0.01 mg P/kg, 7 day",.0.
same,necrosis at the injection sites,"injection sites / skin; 0.1 mg P/kg, 1 day",.0.
same,necrosis at the injection sites,"injection sites / skin; 0.1 mg P/kg, 2 day",.0.
same,necrosis at the injection sites,"injection sites / skin; 0.1 mg P/kg, 3 day",.0.
same,necrosis at the injection sites,"injection sites / skin; 0.1 mg P/kg, 4 day",.0.
same,necrosis at the injection sites,"injection sites / skin; 0.1 mg P/kg, 5 day",.0.
same,necrosis at the injection sites,"injection sites / skin; 0.1 mg P/kg, 6 day",.0.
same,necrosis at the injection sites,"injection sites / skin; 0.1 mg P/kg, 7 day",.0.
same,necrosis at the injection sites,"injection sites / skin; 1 mg P/kg, 1 day",.0.
same,necrosis at the injection sites,"injection sites / skin; 1 mg P/kg, 2 day",.0.
same,necrosis at the injection sites,"injection sites / skin; 1 mg P/kg, 3 day",.0.
same,necrosis at the injection sites,"injection sites / skin; 1 mg P/kg, 4 day",.0.
same,necrosis at the injection sites,"injection sites / skin; 1 mg P/kg, 5 day",.0.
same,necrosis at the injection sites,"injection sites / skin; 1 mg P/kg, 6 day",.0.
same,necrosis at the injection sites,"injection sites / skin; 1 mg P/kg, 7 day",.0.
same,necrosis at the injection sites,"injection sites / skin; 10 mg P/kg, 1 day",.0.
same,necrosis at the injection sites,"injection sites / skin; 10 mg P/kg, 2 day",.0.
same,necrosis at the injection sites,"injection sites / skin; 10 mg P/kg, 5 day",xxx
same,necrosis at the injection sites,"injection sites / skin; 10 mg P/kg, 6 day",xxx
same,necrosis at the injection sites,"injection sites / skin; 10 mg P/kg, 7 day",xxx
same,death of animals,"injection sites / skin; 10 mg P/kg, 8 day",animals died spontaneously
same,LD50,in vivo; ip,125 mg/kg
same,LD50,in vivo; iv,75 mg/kg
same,LD50,"in vivo; po, os",> 2000 mg/kg
same,activity at 2.5 µM,[3],109 ± 6%
same,activity at 25 µM,[3],108 ± 4.5%
same,activity at 250 µM,[3],165 ± 7.7%
same,activity at 2.5 µM,skull cells,93.3 ± 3%
same,activity at 25 µM,skull cells,95.2 ± 2.2%
same,activity at 250 µM,skull cells,87 ± 3.4%
same,"effect on mineralization, in words",[4]; 10 mg of P/kg / high dosage where stated,strong inhibition of mineralization; also recorded: exhibits high inhibition
same,"effect on bone reabsorption, in words","[4]; rat, in vivo",active on the reabsorption with a result slightly superior to Cl2 MBP
